Measurements reported in the supplement of paper PMC10307832.

Legend:
Assay in all cases: relative viability (nuclei count vs DMSO), 5 days (fraction); higher = more cells survive
BMX-IN-1 + Vorinostat = compound: C=CC(=O)Nc1cc(-n2c(=O)ccc3cnc4ccc(-c5ccc(NS(C)(=O)=O)cc5)cc4c32)ccc1C [BMX-IN-1] + O=C(CCCCCCC(=O)Nc1ccccc1)NO [Vorinostat] (partner 1 µM)
In short: (§1)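 Relative viability was taken as the ratio of nuclei in treated wells to nuclei in vehicle wells. Lung cancer cell lines in 1536-well plates received compounds by pin tool one day after seeding, either one drug alone or a fixed anchor-drug dose plus five library-drug doses (not always all listed) in √10 steps. Nuclei were counted on 4× images after 5 days of treatment, and values are medians of duplicate plates.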

Ibrutinib + Luminespib = compound: C=CC(=O)N1CCC[C@@H](n2nc(-c3ccc(Oc4ccccc4)cc3)c3c(N)ncnc32)C1 [Ibrutinib] + CCNC(=O)c1noc(-c2cc(C(C)C)c(O)cc2O)c1-c1ccc(CN2CCOCC2)cc1 [Luminespib] (partner 0.01 µM)
In short: as §1

PAC-1 + Pictilisib = compound: C=CCc1cccc(/C=N/NC(=O)CN2CCN(Cc3ccccc3)CC2)c1O [PAC-1] + CS(=O)(=O)N1CCN(Cc2cc3nc(-c4cccc5[nH]ncc45)nc(N4CCOCC4)c3s2)CC1 [Pictilisib] (partner 1 µM)
In short: as §1

BMX-IN-1 + Olaparib = compound: C=CC(=O)Nc1cc(-n2c(=O)ccc3cnc4ccc(-c5ccc(NS(C)(=O)=O)cc5)cc4c32)ccc1C [BMX-IN-1] + O=C(c1cc(Cc2n[nH]c(=O)c3ccccc23)ccc1F)N1CCN(C(=O)C2CC2)CC1 [Olaparib] (partner 8 µM)
In short: as §1

Cell Line	relative viability (BMX-IN-1 + Vorinostat; first compound 0.02 µM)	relative viability (BMX-IN-1 + Vorinostat; first compound 0.2 µM)	relative viability (BMX-IN-1 + Vorinostat; first compound 0.6325 µM)	relative viability (BMX-IN-1 + Vorinostat; first compound 2 µM)	relative viability (Ibrutinib + Luminespib; first compound 0.005 µM)	relative viability (Ibrutinib + Luminespib; first compound 0.01581 µM)	relative viability (Ibrutinib + Luminespib; first compound 0.05 µM)	relative viability (Ibrutinib + Luminespib; first compound 0.1581 µM)	relative viability (Ibrutinib + Luminespib; first compound 0.5 µM)	relative viability (PAC-1 + Pictilisib; first compound 0.02 µM)	relative viability (PAC-1 + Pictilisib; first compound 0.06325 µM)	relative viability (PAC-1 + Pictilisib; first compound 0.2 µM)	relative viability (PAC-1 + Pictilisib; first compound 2 µM)	relative viability (BMX-IN-1 + Olaparib; first compound 0.02 µM)	relative viability (BMX-IN-1 + Olaparib; first compound 0.2 µM)	relative viability (BMX-IN-1 + Olaparib; first compound 0.6325 µM)	relative viability (BMX-IN-1 + Olaparib; first compound 2 µM)
NCI-H520	0.8	0.718	0.666	0.696	0.252	0.237	0.247	0.232	0.269	0.266	0.303	0.256	0.35	0.323	0.368	0.301	0.273
NCI-H596	0.685	0.84	0.67	0.666		0.894	0.77	0.959	0.805	0.424	0.423	0.341	0.422	0.712	0.641	0.692	0.755
NCI-H647	0.709	0.725	0.663	0.495		0.14	0.239	0.181	0.196	0.417		0.417	0.331	0.687	1.04	0.553	0.574
NCI-H650	0.475	0.52	0.48	0.438	0.775	0.757	0.737	0.885	0.949	1.07	0.951	0.86	0.874	0.366	0.379	0.469	0.456
NCI-H661	0.878	0.877	0.857	0.743	1	0.835	0.772	0.934	0.653	0.392	0.351	0.33	0.371	0.963	0.758	0.81	0.738
NCI-H727	1.11	1.3	1.29	1.2		0.597	0.282		0.516	0.338	0.525	0.453	0.283	0.555	0.642	0.703	0.688
NCI-H838	0.827	0.64	0.728	0.73	0.288		0.266	0.326	0.325	0.427	0.526	0.387	0.455	0.81	0.933	0.915	0.859
NCI-H1355	0.705	0.706	0.697	0.76	0.55	0.648	0.715	0.858	0.517	0.386	0.475	0.393	0.492	0.805	0.813	0.713	0.749
NCI-H1395	0.764	0.708	0.942	0.746	0.488	0.739	1.15	0.788	0.702	0.603	0.677	0.61	0.602	0.433	0.45	0.452	0.45
NCI-H1437	0.964	0.866	0.896	0.949	1.13	1.16	1.11	1.14	1.12	0.495	0.474	0.415	0.391	0.662	0.647	0.692	0.664
NCI-H1650	0.501	0.452	0.571	0.522	0.211	0.196	0.192	0.194	0.209	0.53	0.608	0.582	0.515	0.977	0.914	0.762	0.77
NCI-H1651	0.481	0.585	0.604	0.552	0.847	1.05	0.93	0.876	0.921	0.579	0.647	0.59	0.535	0.175	0.182	0.18	0.183
NCI-H1666	1.03	1.05	1.13	1.15	0.951	0.975	0.956	1.08	0.784	0.501	0.398	0.358	0.427	0.753	0.806	0.631	0.769
NCI-H1734	0.81	0.927	0.866	0.902	0.208	0.189	0.235	0.188	0.175	0.446	0.448	0.431	0.468	0.645	0.683	0.689	0.604
NCI-H1755	0.72	0.849	0.812	0.8	0.318	0.617	0.55	0.313	0.531	0.445	0.434	0.391	0.438	0.903	0.941	1.01	0.873
NCI-H1793	0.998	0.563	0.856	0.849		0.155	0.196	0.177	0.151	0.344	0.345	0.254	0.332	1.1	1.01	1.05	0.92
NCI-H1915	0.576	0.531	0.564	0.53	0.824	0.85	0.819	0.857	0.69	0.875	1.02	0.929	0.951	0.267	0.27	0.263	0.246
NCI-H1944	0.519	0.659	0.598	0.578	0.649	0.57	0.714	0.669	0.536	0.3	0.345	0.323	0.33	0.439	0.414	0.396	0.435

Cell Line	relative viability (BMX-IN-1 + Vorinostat; first compound 0.02 µM)	relative viability (BMX-IN-1 + Vorinostat; first compound 0.2 µM)	relative viability (BMX-IN-1 + Vorinostat; first compound 0.6325 µM)	relative viability (BMX-IN-1 + Vorinostat; first compound 2 µM)	relative viability (Ibrutinib + Luminespib; first compound 0.005 µM)	relative viability (Ibrutinib + Luminespib; first compound 0.01581 µM)	relative viability (Ibrutinib + Luminespib; first compound 0.05 µM)	relative viability (Ibrutinib + Luminespib; first compound 0.1581 µM)	relative viability (Ibrutinib + Luminespib; first compound 0.5 µM)	relative viability (PAC-1 + Pictilisib; first compound 0.02 µM)	relative viability (PAC-1 + Pictilisib; first compound 0.06325 µM)	relative viability (PAC-1 + Pictilisib; first compound 0.2 µM)	relative viability (PAC-1 + Pictilisib; first compound 2 µM)	relative viability (BMX-IN-1 + Olaparib; first compound 0.02 µM)	relative viability (BMX-IN-1 + Olaparib; first compound 0.2 µM)	relative viability (BMX-IN-1 + Olaparib; first compound 0.6325 µM)	relative viability (BMX-IN-1 + Olaparib; first compound 2 µM)
NCI-H1975	0.707	0.754	0.737	0.703	0.162	0.183	0.212	0.254	0.138	0.281	0.304	0.308	0.303	0.837	1.02	0.853	0.841
NCI-H1993	0.767	0.9	0.85	0.898	0.607	0.78	0.824	0.689	0.605	0.696	0.881	0.844	0.823	1.21	1.15	0.913	1.06
NCI-H2009	0.782	0.798	0.746	0.839	1.07	1.06	1.07	1.02	1.05	0.832	0.866	0.792	0.789	0.838	0.646	0.654	0.66
NCI-H2023	0.726	0.742	0.654	0.105	0.671	0.678	0.665	0.737	0.907	0.224	0.262	0.213	0.258	0.516	0.655	0.47	0.489
NCI-H2085	0.816	0.771	0.821	0.831	0.349	0.465	0.504	0.489	0.447	0.446	0.518	0.422	0.485	0.807	0.704	0.782	0.746
NCI-H2087	0.66	1.12	0.837	0.575	0.161	0.136	0.153		0.165	0.852	0.901	0.782	0.683	0.627	0.62	0.556	0.643
NCI-H2126	0.829	0.697	0.864	0.786	0.651	0.756	0.855	0.962	0.75	0.43	0.478	0.495	0.49	0.979	0.897	1.03	0.875
NCI-H2170	0.724	1.06	0.79	0.849	0.435	0.425	0.446	0.741	0.344	0.28	0.315	0.362	0.27	0.587	0.677	0.717	0.624
NCI-H2228	0.938	0.884	0.531	0.561	0.121		0.116	0.131	0.144	0.42	0.507	0.397	0.362	0.768	0.835	0.667	0.784
NCI-H2347	0.725	0.716	0.586	0.596		0.508	0.358	0.323	0.529	0.51	0.723	0.604	0.591	0.523	0.603	0.597	0.573
NCI-H2405	1.05	1.13	1.16	0.955	0.846	0.669	0.66	0.713	0.69	0.44	0.455	0.45	0.376	0.958	0.958	0.977	0.865
NCI-H3122	0.938	1.1	0.902	1.14	0.0621	0.0853	0.101	0.104	0.0947	0.611	0.564	0.645	0.566	0.678	0.781	0.672	0.64
PC-3 [JPC-3]	0.953	0.831	0.916	0.766	0.65	0.64	0.74	0.806	0.505	0.736	0.77	0.732	0.787	1.25	1.46	1.06	1.1
PC-14	0.863	0.86	1.01	0.0519	0.167	0.266	0.135	0.127	0.179	0.667	0.681	0.623	0.677	0.265	0.265	0.297	0.266
RERF-LC-KJ	0.77	0.734	0.824	0.45	1.24	1.12	1.26	1.14	1.16	0.553	0.471	0.423	0.552	0.968	1.09	1.06	0.923
SK-LU-1	0.719	0.969	0.797	0.69	0.205	0.184	0.24	0.199	0.194	0.557	0.607	0.457	0.512	0.491	0.403	0.516	0.506
SW 1573	0.845	0.98	0.709	0.0976	0.419	0.382	0.198	0.288	0.582	0.475	0.448	0.394	0.457	0.592	0.49	0.433	0.343
UMC-11	0.343	0.417	0.336	0.332	0.873	0.999	1.07	1.05	0.98	0.843	0.783	0.754	0.815	0.402	0.389	0.364	0.364
